Each structure is given as a SMILES string. pIC50: −log10 of the molar value.

For the experiment, the target named is T1, human PAR4 (Homo sapiens, UniProt Q96RI0).
T1 construct: expressed in transfected cells; host or cells: HEK293 PAR4 Clone 1.2A (BMS Arctic ID 383940)
T1 sequence (Q96RI0 18-385): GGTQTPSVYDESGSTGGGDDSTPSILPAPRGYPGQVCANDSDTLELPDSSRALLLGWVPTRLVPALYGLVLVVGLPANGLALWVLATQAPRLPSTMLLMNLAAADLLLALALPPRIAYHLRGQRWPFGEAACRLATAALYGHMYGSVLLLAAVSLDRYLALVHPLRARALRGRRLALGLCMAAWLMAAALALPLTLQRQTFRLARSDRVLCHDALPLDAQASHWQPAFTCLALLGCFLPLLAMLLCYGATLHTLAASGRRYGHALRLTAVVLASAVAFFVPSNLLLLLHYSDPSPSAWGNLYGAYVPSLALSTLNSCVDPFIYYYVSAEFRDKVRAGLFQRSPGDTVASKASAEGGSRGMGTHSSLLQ
The experiment is described as follows: PAR4 FLIPR assay: antagonism of agonist-peptide-induced calcium mobilization in PAR4-expressing HEK293 cells. The class given is cell-based. The note with it: H-Ala-Phe(4-F)-[…]NH2-induced intracellular calcium mobilization, 11-point curves. In general terms: Calcium assays in cells follow changes in intracellular calcium, usually with a dye or a luminescent sensor.
One may read the pIC50 as the negative decadic logarithm of the IC50, by convention in mol/L. For the compound `COC(=O)c1cc(NC(=O)OCCOc2cc3sc(-c4cc(C)cc5nc(OC)cnc45)nc3c(Cl)c2F)cn1C` [Example 378, methyl 4-(((2-((4-chloro-5-fluoro-2-(2-methoxy-7-methylquinoxalin-5-yl)benzo[d]thiazol-6-yl)oxy)ethoxy)carbonyl)amino)-1-methyl-1H-pyrrole-2-carboxylate], the negative-log IC50 (pIC50) was 8.06. Regarding `COc1cnc2c(-c3nc4cc(F)c(OCC(COCC(C)C)OC(=O)Nc5cccnc5)cc4s3)cc(C)cc2n1` (centres unmarked) [Example 379, 1-((5-fluoro-2-(2-methoxy-7-methylquinoxalin-5-yl)benzo[d]thiazol-6-yl)oxy)-3-isobutoxypropan-2-yl pyridin-3-ylcarbamate], the pIC50 was 8.77. For the compound `COc1cnc2c(-c3nc4cc(F)c(OCC(COCc5ccccc5)OC(=O)Nc5cccnc5)cc4s3)cc(C)cc2n1` (centres unmarked) [Example 380, 1-(benzyloxy)-3-((5-fluoro-2-(2-methoxy-7-methylquinoxalin-5-yl)benzo[d]thiazol-6-yl)oxy)propan-2-yl pyridin-3-ylcarbamate], the negative logarithm of the IC50 (pIC50) is 8.64.

On to `COc1cnc2c(-c3nc4c(Cl)c(F)c(OCCOC(=O)Nc5csc(Cl)n5)cc4s3)cc(C)cc2n1` [Example 383, 2-((4-chloro-5-fluoro-2-(2-methoxy-7-methylquinoxalin-5-yl)benzo[d]thiazol-6-yl)oxy)ethyl (2-chlorothiazol-4-yl)carbamate], for which the negative-log IC50 (pIC50) was 6.23.

Consider `COc1cnc2c(-c3nc4c(Cl)c(F)c(OCCOC(=O)Nc5cncs5)cc4s3)cc(C)cc2n1` [Example 384, 2-((4-chloro-5-fluoro-2-(2-methoxy-7-methylquinoxalin-5-yl)benzo[d]thiazol-6-yl)oxy)ethyl thiazol-5-ylcarbamate], for which the negative-log IC50 (pIC50) is 7.74.

`COc1cnc2c(-c3nc4c(Cl)c(F)c(OC[C@@H](C)OC(=O)Nc5ccc(CO)nc5)cc4s3)cc(C)cc2n1` [Example 385, (R)-1-((4-chloro-5-fluoro-2-(2-methoxy-7-methylquinoxalin-5-yl)benzo[d]thiazol-6-yl)oxy)propan-2-yl (6-(hydroxymethyl)pyridin-3-yl)carbamate]: the pIC50 was 8.64. Take `COc1cnc2c(-c3nc4cc(F)c(O[C@@H](C)[C@@H](C)OC(=O)Nc5cnc(C)nc5)cc4s3)cc(C)cc2n1` [Example 386, (2R,3S)-3-((5-fluoro-2-(2-methoxy-7-methylquinoxalin-5-yl)benzo[d]thiazol-6-yl)oxy)butan-2-yl (2-methylpyrimidin-5-yl)carbamate]: the pIC50 was 8.11. `COc1cnc2c(-c3nc4cc(F)c(O[C@@H](C)[C@@H](C)OC(=O)Nc5ccc(CCO)nc5)cc4s3)cc(C)cc2n1` [Example 387, (2R,3S)-3-((5-fluoro-2-(2-methoxy-7-methylquinoxalin-5-yl)benzo[d]thiazol-6-yl)oxy)butan-2-yl (6-(2-hydroxyethyl)pyridin-3-yl)carbamate]: the negative-log IC50 (pIC50) is 8.82. For the compound `COc1cnc2c(-c3nc4cc(F)c(O[C@@H](C)[C@@H](C)OC(=O)Nc5ccnc(OCCO)c5)cc4s3)cc(C)cc2n1` [Example 388, (2R,3S)-3-((5-fluoro-2-(2-methoxy-7-methylquinoxalin-5-yl)benzo[d]thiazol-6-yl)oxy)butan-2-yl (2-(2-hydroxyethoxy)pyridin-4-yl)carbamate], the pIC50 is 9.15. With `CCOc1cnc2c(-c3nc4cc(F)c(O[C@@H](C)[C@@H](C)OC(=O)Nc5cnc(C)nc5)cc4s3)cc(C)cc2n1` [Example 389, (2R,3S)-3-((2-(2-ethoxy-7-methylquinoxalin-5-yl)-5-fluorobenzo[d]thiazol-6-yl)oxy)butan-2-yl (2-methylpyrimidin-5-yl)carbamate], the pIC50 was 9.40. The same measure for `CNc1cnc2c(-c3nc4cc(F)c(O[C@@H](C)[C@@H](C)OC(=O)Nc5cnc(C)nc5)cc4s3)cc(C)cc2n1` [Example 390, (2R,3S)-3-((5-fluoro-2-(7-methyl-2-(methylamino)quinoxalin-5-yl)benzo[d]thiazol-6-yl)oxy)butan-2-yl (2-methylpyrimidin-5-yl)carbamate]: 8.44; for `COc1cnc2c(-c3nc4c(Cl)c(F)c(OCCOC(=O)Nc5ccc(C#N)nc5)cc4s3)cc(C)cc2n1` [Example 395, 2-((4-chloro-5-fluoro-2-(2-methoxy-7-methylquinoxalin-5-yl)benzo[d]thiazol-6-yl)oxy)ethyl (6-cyanopyridin-3-yl)carbamate]: 8.24; for `COc1cnc2c(-c3nc4c(Cl)c(F)c(OCCOC(=O)NCc5ccccn5)cc4s3)cc(C)cc2n1` [Example 396, 2-((4-chloro-5-fluoro-2-(2-methoxy-7-methylquinoxalin-5-yl)benzo[d]thiazol-6-yl)oxy)ethyl (pyridin-2-ylmethyl)carbamate]: 8.34. For the compound `COc1cnc2c(-c3nc4c(Cl)c(F)c(OCCOC(=O)NCc5cn(C)cn5)cc4s3)cc(C)cc2n1` [Example 397, 2-((4-chloro-5-fluoro-2-(2-methoxy-7-methylquinoxalin-5-yl)benzo[d]thiazol-6-yl)oxy)ethyl ((1-methyl-1H-imidazol-4-yl)methyl)carbamate], the negative-log IC50 (pIC50) is 6.68. Take `COc1cnc2c(-c3nc4c(Cl)c(F)c(OCCOC(=O)NCc5ccn(C)n5)cc4s3)cc(C)cc2n1` [Example 398, 2-((4-chloro-5-fluoro-2-(2-methoxy-7-methylquinoxalin-5-yl)benzo[d]thiazol-6-yl)oxy)ethyl ((1-methyl-1H-pyrazol-3-yl)methyl)carbamate]: the pIC50 is 8.07. Consider `COc1cnc2c(-c3nc4c(Cl)c(F)c(OCCOC(=O)NCc5cnn(C)c5)cc4s3)cc(C)cc2n1` [Example 399, 2-((4-chloro-5-fluoro-2-(2-methoxy-7-methylquinoxalin-5-yl)benzo[d]thiazol-6-yl)oxy)ethyl ((1-methyl-1H-pyrazol-4-yl)methyl)carbamate], for which the pIC50 was 8.41.

For the compound `COc1cnc2c(-c3nc4c(Cl)c(F)c(OC[C@@H](C)OC(=O)Nc5cnc(C#N)nc5)cc4s3)cc(C)cc2n1` [Example 400, (R)-1-((4-chloro-5-fluoro-2-(2-methoxy-7-methylquinoxalin-5-yl)benzo[d]thiazol-6-yl)oxy)propan-2-yl (2-cyanopyrimidin-5-yl)carbamate], the negative-log IC50 (pIC50) was 8.70. With `COc1cnc2c(-c3nc4c(Cl)c(F)c(OC[C@@H](C)OC(=O)Nc5cnc(Cl)nc5)cc4s3)cc(C)cc2n1` [Example 401, (R)-1-((4-chloro-5-fluoro-2-(2-methoxy-7-methylquinoxalin-5-yl)benzo[d]thiazol-6-yl)oxy)propan-2-yl (2-chloropyrimidin-5-yl)carbamate], the negative logarithm of the IC50 (pIC50) was 8.57. With `COc1cnc2c(-c3nc4c(Cl)c(F)c(OC[C@@H](C)OC(=O)Nc5cnc(F)c(C)c5)cc4s3)cc(C)cc2n1` [Example 402, (R)-1-((4-chloro-5-fluoro-2-(2-methoxy-7-methylquinoxalin-5-yl)benzo[d]thiazol-6-yl)oxy)propan-2-yl (6-fluoro-5-methylpyridin-3-yl)carbamate], the pIC50 was 8.43. Consider `COc1cnc2c(-c3nc4c(Cl)c(F)c(OC[C@@H](C)OC(=O)Nc5ccc(Br)nc5)cc4s3)cc(C)cc2n1` [Example 403, (R)-1-((4-chloro-5-fluoro-2-(2-methoxy-7-methylquinoxalin-5-yl)benzo[d]thiazol-6-yl)oxy)propan-2-yl (6-bromopyridin-3-yl)carbamate], for which the negative-log IC50 (pIC50) is 8.77. Turning to `COc1cnc2c(-c3nc4c(Cl)c(F)c(O[C@@H](C)[C@@H](C)OC(=O)Nc5cccnc5)cc4s3)cc(C)cc2n1` [Example 404, (2R,3S)-3-((4-chloro-5-fluoro-2-(2-methoxy-7-methylquinoxalin-5-yl)benzo[d]thiazol-6-yl)oxy)butan-2-yl pyridin-3-ylcarbamate], the negative logarithm of the IC50 (pIC50) is 8.66. In the case of `COc1cnc2c(-c3nc4cc(F)c(O[C@@H](C)[C@@H](C)OC(=O)Nc5ccc(C)nc5)cc4s3)cc(C)cc2n1` [Example 405, (2R,3S)-3-((5-fluoro-2-(2-methoxy-7-methylquinoxalin-5-yl)benzo[d]thiazol-6-yl)oxy)butan-2-yl (6-methylpyridin-3-yl)carbamate], the pIC50 was 8.72. On to `COc1cnc2c(-c3nc4cc(F)c(O[C@@H](C)[C@@H](C)OC(=O)Nc5ccc6[nH]c(=O)oc6c5)cc4s3)cc(C)cc2n1` [Example 406, (2R,3S)-3-((5-fluoro-2-(2-methoxy-7-methylquinoxalin-5-yl)benzo[d]thiazol-6-yl)oxy)butan-2-yl (2-oxo-2,3-dihydrobenzo[d]oxazol-6-yl)carbamate], for which the negative logarithm of the IC50 (pIC50) is 8.46. Turning to `COc1cnc2c(-c3nc4cc(F)c(O[C@@H](C)[C@@H](C)OC(=O)Nc5cnc(OC)nc5)cc4s3)cc(C)cc2n1` [Example 407, (2R,3S)-3-((5-fluoro-2-(2-methoxy-7-methylquinoxalin-5-yl)benzo[d]thiazol-6-yl)oxy)butan-2-yl (2-methoxypyrimidin-5-yl)carbamate], the negative-log IC50 (pIC50) was 9.05. In the case of `COc1cnc2c(-c3nc4cc(F)c(OC[C@@H](C)OC(=O)Nc5cnc(OC)nc5)cc4s3)cc(C)cc2n1` [Example 408, (R)-1-((5-fluoro-2-(2-methoxy-7-methylquinoxalin-5-yl)benzo[d]thiazol-6-yl)oxy)propan-2-yl (2-methoxypyrimidin-5-yl)carbamate], the negative logarithm of the IC50 (pIC50) is 8.49. With `COc1cnc2c(-c3nc4cc(F)c(OC[C@@H](C)OC(=O)Nc5cncnc5)cc4s3)cc(C)cc2n1` [Example 409, (R)-1-((5-fluoro-2-(2-methoxy-7-methylquinoxalin-5-yl)benzo[d]thiazol-6-yl)oxy)propan-2-yl pyrimidin-5-ylcarbamate] the figure was 9.40.

Source of the values: patent publication US12060347B2 (BRISTOL-MYERS SQUIBB COMPANY, priority 2016, dated 2024).
